The values below are quoted from earlier work in PMC10010621, “ATP binding by an F1Fo ATP synthase ε subunit is pH dependent, suggesting a diversity of ε subunit functional regulation in bacteria” (Frontiers in Molecular Biosciences, 2023).

Series [1] relates to B. subtilis ε subunit εE102A. More on the design: method as in Krah et al., 2021. The following applies: εE102A versus wild-type; ref Krah et al., 2021.
Series [2] deals with εR103A/εR115A double-mutant ε subunit of Bacillus PS3. Details: method as in Kato-Yamada, 2016. The following applies: ref Kato-Yamada, 2016, read-out: ATP binding affinity.
For series [3], the target named is Bacillus subtilis ε subunit. More on the design: method as in Kato-Yamada, 2005; Krah et al., 2021. The following applies: isolated ε subunit; ref Kato-Yamada, 2005; Krah et al., 2021; read-out: Kd (ATP binding affinity).
Series [4] deals with B. subtilis ε subunit εE102R. Details: method as in Krah et al., 2021. The note with it: εE102R versus wild-type; ref Krah et al., 2021.
Series [5] concerns Escherichia coli ε subunit. Details: method as in Yagi et al., 2007. The note with it: isolated ε subunit; ref Yagi et al., 2007; read-out: Kd (ATP binding affinity).
Series [6] deals with C. thermarum ε subunit NTH mutant (εD89A, εR92A). More on the design: method as in Ferguson et al., 2016. The following applies: F1 domain, ref Ferguson et al., 2016.
In series [7] the test system is ε subunit of M. tuberculosis. More on the design: method as in Biukovic et al., 2013. The following applies: at the conditions measured; ref Biukovic et al., 2013.
The target in the next series is Bacillus PS3 ε subunit. The note with it: isolated ε subunit; ref Kato et al., 2007; read-out: Kd (ATP binding affinity).
Details of series [8]: method as in Tanokura et al., 1976. The following applies: solution phase; ref Tanokura et al., 1976.

SMILES strings stand for the structures.

`Nc1ncnc2c1ncn2[C@@H]1O[C@H](COP(=O)(O)OP(=O)(O)OP(=O)(O)O)[C@@H](O)[C@H]1O` [ATP]: the “increase in ATP binding affinity” value in [1] is recorded as ~10 fold; in series [4], ~54 fold. Moreover, the Kd in series [2] was 0.052 µM; in series [3], 2100 µM; in series [5] it was 22000 µM; at Bacillus PS3 ε subunit it was 4.3 µM. The ATP binding result in series [6] is listed as “lack of ability to bind ATP”; in series [7], “did not bind to ATP”.

Turning to `N[C@@H](Cc1c[nH]cn1)C(=O)O` [histidine], in [8], the “pKa of the imidazole group” value is reported as 6.0–6.5.
